The values below come from ChEMBL document CHEMBL5465560, “Selectivity Literature for EUbOPEN Chemogenomic Library” (2024).

Assay [1] addresses T1, Serine/threonine-protein kinase PLK4 (Homo sapiens) (UniProt O00444).
T1 sequence (whole entry): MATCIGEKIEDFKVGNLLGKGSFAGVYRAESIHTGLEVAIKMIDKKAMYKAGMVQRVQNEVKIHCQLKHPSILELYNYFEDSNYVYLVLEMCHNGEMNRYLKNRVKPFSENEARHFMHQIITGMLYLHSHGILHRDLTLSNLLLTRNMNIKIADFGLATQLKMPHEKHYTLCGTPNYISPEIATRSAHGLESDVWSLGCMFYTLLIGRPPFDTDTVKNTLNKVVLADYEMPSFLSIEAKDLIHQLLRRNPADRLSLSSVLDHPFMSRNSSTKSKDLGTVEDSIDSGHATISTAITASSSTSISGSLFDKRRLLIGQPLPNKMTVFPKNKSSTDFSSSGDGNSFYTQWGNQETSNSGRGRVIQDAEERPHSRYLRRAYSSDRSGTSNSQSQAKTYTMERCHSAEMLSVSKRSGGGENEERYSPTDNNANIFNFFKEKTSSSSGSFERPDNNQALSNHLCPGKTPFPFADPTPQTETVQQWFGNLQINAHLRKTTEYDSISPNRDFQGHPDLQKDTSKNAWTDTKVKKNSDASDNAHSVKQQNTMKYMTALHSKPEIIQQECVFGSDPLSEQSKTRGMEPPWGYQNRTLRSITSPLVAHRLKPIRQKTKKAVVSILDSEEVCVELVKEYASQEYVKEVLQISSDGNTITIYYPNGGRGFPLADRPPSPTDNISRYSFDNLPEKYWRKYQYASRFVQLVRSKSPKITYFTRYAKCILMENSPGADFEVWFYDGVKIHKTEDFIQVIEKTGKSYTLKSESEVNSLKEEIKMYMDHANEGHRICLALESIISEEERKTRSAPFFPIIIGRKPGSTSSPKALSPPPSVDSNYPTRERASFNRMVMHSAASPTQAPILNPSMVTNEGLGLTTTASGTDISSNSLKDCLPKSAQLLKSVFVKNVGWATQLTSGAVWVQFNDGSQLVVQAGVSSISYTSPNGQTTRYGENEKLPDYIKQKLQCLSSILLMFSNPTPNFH
The assay can be described thus: Selectivity interaction (KinomeScan (DiscoverX)) EUB0000045b PLK4.

The target in assay [2] is T2, Serine/threonine-protein kinase ULK1 (Homo sapiens) (UniProt O75385).
T2 sequence (whole entry): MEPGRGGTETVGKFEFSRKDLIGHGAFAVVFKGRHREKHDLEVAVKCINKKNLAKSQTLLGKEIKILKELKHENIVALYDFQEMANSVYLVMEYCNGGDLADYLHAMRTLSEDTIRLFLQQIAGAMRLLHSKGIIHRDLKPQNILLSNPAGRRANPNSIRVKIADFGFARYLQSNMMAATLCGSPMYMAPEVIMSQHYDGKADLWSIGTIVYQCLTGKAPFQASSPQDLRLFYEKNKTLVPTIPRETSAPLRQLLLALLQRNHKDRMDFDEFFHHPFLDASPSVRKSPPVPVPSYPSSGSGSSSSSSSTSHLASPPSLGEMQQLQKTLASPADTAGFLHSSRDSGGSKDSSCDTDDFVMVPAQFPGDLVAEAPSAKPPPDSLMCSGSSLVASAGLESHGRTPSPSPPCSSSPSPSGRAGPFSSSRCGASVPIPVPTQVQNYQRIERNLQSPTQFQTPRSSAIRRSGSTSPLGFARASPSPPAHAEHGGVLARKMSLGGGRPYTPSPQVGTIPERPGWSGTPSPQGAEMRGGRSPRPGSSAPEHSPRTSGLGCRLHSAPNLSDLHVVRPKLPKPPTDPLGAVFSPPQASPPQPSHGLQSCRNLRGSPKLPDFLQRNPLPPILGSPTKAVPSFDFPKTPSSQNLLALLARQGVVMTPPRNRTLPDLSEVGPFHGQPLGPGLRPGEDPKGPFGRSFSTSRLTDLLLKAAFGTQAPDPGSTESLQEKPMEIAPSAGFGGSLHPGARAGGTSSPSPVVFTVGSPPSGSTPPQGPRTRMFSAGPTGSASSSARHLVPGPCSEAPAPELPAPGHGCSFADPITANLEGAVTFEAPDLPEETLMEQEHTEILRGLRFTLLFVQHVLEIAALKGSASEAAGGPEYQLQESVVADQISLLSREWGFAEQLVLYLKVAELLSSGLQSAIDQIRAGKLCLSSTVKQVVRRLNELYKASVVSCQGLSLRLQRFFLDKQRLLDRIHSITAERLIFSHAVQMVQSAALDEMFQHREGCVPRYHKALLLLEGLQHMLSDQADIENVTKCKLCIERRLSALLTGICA
The assay can be described thus: Selectivity interaction (KinomeScan (DiscoverX)) EUB0000045b ULK1.

Assay [3] deals with Serine/threonine-protein kinase pim-3 (Homo sapiens) (UniProt Q86V86). Put plainly: Selectivity interaction (KinomeScan (DiscoverX)) EUB0000666a PIM3. Conditions: at 10 µM.
Assay [4] has as its target T3, Serine/threonine-protein kinase Sgk3 (Homo sapiens) (UniProt Q96BR1).
T3 sequence (whole entry): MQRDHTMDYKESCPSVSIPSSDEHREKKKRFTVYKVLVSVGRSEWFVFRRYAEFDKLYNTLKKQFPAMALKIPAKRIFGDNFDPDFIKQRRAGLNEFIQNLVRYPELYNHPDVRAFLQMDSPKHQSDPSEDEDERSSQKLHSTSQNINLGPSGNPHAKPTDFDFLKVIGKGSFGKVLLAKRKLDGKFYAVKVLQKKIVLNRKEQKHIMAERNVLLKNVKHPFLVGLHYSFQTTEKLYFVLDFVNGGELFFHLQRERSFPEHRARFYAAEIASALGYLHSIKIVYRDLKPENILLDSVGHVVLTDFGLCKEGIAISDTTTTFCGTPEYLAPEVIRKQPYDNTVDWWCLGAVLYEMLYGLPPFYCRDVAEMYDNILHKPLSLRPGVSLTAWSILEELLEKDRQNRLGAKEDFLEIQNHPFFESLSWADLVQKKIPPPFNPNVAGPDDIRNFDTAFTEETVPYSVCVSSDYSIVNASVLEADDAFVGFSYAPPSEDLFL
Put plainly: Selectivity interaction (ActivX KiNativ screen (kinase selectivity in THP-1 cell lysates)) EUB0000639a SGK3. In kind it is subcellular. Conditions: lysate, at 1 µM.

Assay [5] has as its target Non-receptor tyrosine-protein kinase TYK2 (Homo sapiens, UniProt P29597).

Sequence of Non-receptor tyrosine-protein kinase TYK2 (P29597 whole entry): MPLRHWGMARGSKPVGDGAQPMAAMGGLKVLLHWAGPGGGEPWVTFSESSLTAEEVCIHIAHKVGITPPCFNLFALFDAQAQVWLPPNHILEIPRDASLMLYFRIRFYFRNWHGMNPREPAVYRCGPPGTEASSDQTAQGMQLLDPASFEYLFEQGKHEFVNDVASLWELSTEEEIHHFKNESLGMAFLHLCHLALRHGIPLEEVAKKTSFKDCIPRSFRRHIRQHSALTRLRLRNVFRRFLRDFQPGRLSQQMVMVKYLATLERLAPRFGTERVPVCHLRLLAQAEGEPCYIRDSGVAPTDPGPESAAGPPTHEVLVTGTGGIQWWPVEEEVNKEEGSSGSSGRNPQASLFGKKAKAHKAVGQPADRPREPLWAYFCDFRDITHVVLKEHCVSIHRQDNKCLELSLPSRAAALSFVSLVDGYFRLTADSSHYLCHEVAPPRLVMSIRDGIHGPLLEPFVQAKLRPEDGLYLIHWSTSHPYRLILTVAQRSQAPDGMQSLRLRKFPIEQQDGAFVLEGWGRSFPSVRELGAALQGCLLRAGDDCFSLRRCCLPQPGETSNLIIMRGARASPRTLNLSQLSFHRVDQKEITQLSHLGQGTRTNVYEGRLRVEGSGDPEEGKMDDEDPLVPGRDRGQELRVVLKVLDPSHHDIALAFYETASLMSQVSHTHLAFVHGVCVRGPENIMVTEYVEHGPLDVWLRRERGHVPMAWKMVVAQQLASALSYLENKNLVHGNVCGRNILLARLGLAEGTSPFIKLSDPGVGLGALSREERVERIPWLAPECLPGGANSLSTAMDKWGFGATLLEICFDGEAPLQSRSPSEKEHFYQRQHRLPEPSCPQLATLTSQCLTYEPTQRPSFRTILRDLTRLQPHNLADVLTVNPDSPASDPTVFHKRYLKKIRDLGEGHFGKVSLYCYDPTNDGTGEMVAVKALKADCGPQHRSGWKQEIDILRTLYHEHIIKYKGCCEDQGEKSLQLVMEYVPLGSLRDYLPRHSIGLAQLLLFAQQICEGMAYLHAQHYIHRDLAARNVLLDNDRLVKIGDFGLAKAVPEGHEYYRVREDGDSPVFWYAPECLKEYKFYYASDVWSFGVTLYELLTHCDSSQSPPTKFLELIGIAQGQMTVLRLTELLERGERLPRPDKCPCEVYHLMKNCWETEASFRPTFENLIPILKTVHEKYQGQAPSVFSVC

For the compound `C=CC(=O)Nc1cc(-n2c(=O)ccc3cnc4ccc(-c5ccc(NS(C)(=O)=O)cc5)cc4c32)ccc1C`, the % of control is 100% in assay [1] (at 1 µM), 73% in assay [1] (at 10 µM), 84% in assay [2] (at 1 µM) and 100% in assay [2] (at 10 µM).

Regarding `O=C(NOC[C@H](O)CO)c1ccc(F)c(F)c1Nc1ccc(I)cc1F`, in assay [3], the % of control stood at 100%.

For `CC[C@@H]1[C@H](F)C(=O)N[C@@H]1COc1nccc2cc(C(N)=O)c(OC)cc12` [ZIMLOVISERTIB], the % of inhibition in assay [4] was -1%.

Turning to `CCc1cccc(CC)c1NC(=O)c1nn(C)c2c1CCc1cnc(Nc3ccc(C(=O)NC4CCN(C)CC4)cc3OC(F)(F)F)nc1-2`, the IC50 in assay [5] is above 10 µM.
